# Data from patent publication US11135236B2, “Retinoic acid receptor gamma agonists to attenuate anthracycline-induced cardiotoxicity” (Northwestern University, priority 2018, dated 2021).
# Key:
# MDA-MB-468 = assay: breast cancer cell viability after 72 h of doxorubicin and RARG agonists co-treatment; conditions: MDA-MB-468, doxorubicin 72 h, Vehicle (no agonist)
# Protocol: (§1) 384-well plate-based cell viability, caspase 3/7 activity, and reactive oxygen species (ROS) assays. […] Luminescence was measured using a VarioSkan Lux Multi-Mode Reader (Thermo Scientific) with an integration time of 0.25 sec. 10 μM staurosporine (MedChemExpress) was used as a positive control. […] 10 μM staurosporine and 50 μM menadione (both MedChemExpress) was used as a positive control, respectively. Data were analyzed using Prism 7.0 software (GraphPad) using standard dose-response guidelines.
# (§2) Breast cancer cell lines. Four human breast cancer cell lines were used, MCF7 (adenocarcinoma, ATCC HTB-22) and Hs 578T (carcinsarcoma, ATCC HTB-126) both cultured in RPMI 1640 (Corning) with 10% FBS (Opti-Gold, GenDEPOT), MDA-MB-231 (adenocarcinoma, ATCC HTB-26) and MDA-MB-468 (adenocarcinoma, ATCC HTB-131) both cultured in DMEM (Corning) with 10% FBS. All cells were cultured on uncoated tissue culture plates (Greiner) and passaged with TrypLE Express (Gibco).
# C57BL/6J Mice = assay: mouse model of doxorubicin-induced cardiomyopathy, echocardiography; assay type: in vivo; conditions: doxorubicin 3 mg kg^−1 intraperitoneal twice weekly for 3 weeks
# Source text: Mouse model of doxorubicin-induced cardiomyopathy and drug administration. […] For the control group, we treated mice with corn oil in the same schedule as agonist administration. We recorded an echocardiogram once a week (day 0, day 7, day 14, and day 21) and terminated the experiment at day 21. Hearts were harvested for western blot analyses as mentioned above.
# Echocardiographic evaluation. Mice were studied at baseline and weekly during the protocol under light anesthesia with isoflurane (induction 3%, maintenance 1.5%). 2D images in the parastemal short axis were obtained with a GE Vivid 7 ultrasound system (GE Healthcare) equipped with a 13 MHz transducer. Left ventricular end-systolic (LVESD) and end-diastolic (LVEDD) dimensions were measured and left ventricular fractional shortening (FS) was calculated.
# MCF7 = assay: breast cancer cell viability after 72 h of doxorubicin and RARG agonists co-treatment; assay type: cell-based, human; conditions: MCF7, doxorubicin 72 h, Vehicle (no agonist)
# Protocol: as §1, §2
# MDA-MB-231 = assay: as above; conditions: MDA-MB-231, doxorubicin 72 h, Vehicle (no agonist)
# Protocol: as §1, §2
# hiPSC-CMs = assay: RNA-seq gene expression analysis of hiPSC-CMs after doxorubicin; conditions: 1 μM doxorubicin, 24 h
# Source text: RNA-seq gene expression analysis. […] RNA was extracted using TRI Reagent and Direct-zol RNA microprep kit (both Zymo) including on-column DNase digestion to remove genomic DNA. Samples were quantified using an Agilent 2100 Bioanalyzer and passed QC. Library preparation was done using a TruSeq RNA v2 kit (Illumina) and sequencing with NextSeq 500 instrument (Illumina) by Northwestern's NuSeq core facility, generating ˜40 million single-end 75 bp reads for each sample. Reads were mapped to the GRCh38 reference human genome using Subread software (Liao et al., 2013). Gene expression levels and exon usage were estimated using featureCounts function in the Subread software (Liao et al., 2013). Differential gene expression analysis was done using Deseq2 package (Love et al., 2014) and R (v3.3.3).
# RARG-KO hiPSC-CMs = assay: hiPSC-CM cell viability after 72 h doxorubicin (CellTiter-Glo); assay type: cell-based, human
# Protocol: as §1
# RARG-WT hiPSC-CMs = conditions: doxorubicin LD50, agonist 0 μM, 72 h
# Protocol: as §1
compound,measurement,setting,value
COc1cccc2c1C(=O)c1c(O)c3c(c(O)c1C2=O)C[C@@](O)(C(=O)CO)C[C@@H]3O[C@H]1C[C@H](N)[C@H](O)[C@H](C)O1 [doxorubicin],LD50,MDA-MB-468,1.330 µM
same,"cardiac function, as assessed by fractional shortening",C57BL/6J Mice,steady decline in cardiac function
same,LD50,MCF7,0.490 µM
same,LD50,MDA-MB-231,1.301 µM
same,Log2fc AC009014.3,hiPSC-CMs,5.25
same,Log2fc AC010136.2,hiPSC-CMs,−3.13
same,Log2fc ADCYAP1R1,hiPSC-CMs,6.25
same,Log2fc AL591893.1,hiPSC-CMs,6.49
same,Log2fc BUB1B,hiPSC-CMs,−2.89
same,Log2fc C11orf87,hiPSC-CMs,−3.03
same,Log2fc CA7,hiPSC-CMs,5.41
same,Log2fc CAV3,hiPSC-CMs,−3.53
same,Log2fc CCDC60,hiPSC-CMs,4.98
same,Log2fc CCDC178,hiPSC-CMs,5.45
same,Log2fc CENPA,hiPSC-CMs,−2.97
same,Log2fc CENPE,hiPSC-CMs,−3.10
same,Log2fc CENPI,hiPSC-CMs,−3.23
same,Log2fc CHI3L2,hiPSC-CMs,5.04
same,Log2fc CLCA2,hiPSC-CMs,5.42
same,Log2fc CMB9.22P13.2,hiPSC-CMs,4.99
same,Log2fc CRTAC1,hiPSC-CMs,5.32
same,Log2fc CSTA,hiPSC-CMs,5.15
same,Log2fc CTD.2083E4.7,hiPSC-CMs,−3.85
same,Log2fc CYP2J2,hiPSC-CMs,−2.82
same,Log2fc DAND5,hiPSC-CMs,−4.17
same,Log2fc DIRAS2,hiPSC-CMs,−3.30
same,Log2fc DOK7,hiPSC-CMs,−3.42
same,Log2fc DORAS1,hiPSC-CMs,−2.90
same,Log2fc EN2,hiPSC-CMs,4.93
same,Log2fc ETV7,hiPSC-CMs,6.04
same,Log2fc FABP5P3,hiPSC-CMs,4.97
same,Log2fc FAM196A,hiPSC-CMs,6.36
same,Log2fc FBXL22,hiPSC-CMs,−2.80
same,Log2fc FBXO40,hiPSC-CMs,−2.86
same,Log2fc FOXD3,hiPSC-CMs,5.31
same,Log2fc FUT1,hiPSC-CMs,−2.91
same,Log2fc GCK,hiPSC-CMs,−3.14
same,Log2fc GDNF,hiPSC-CMs,5.54
same,Log2fc GPR87,hiPSC-CMs,6.48
same,Log2fc GRHL3,hiPSC-CMs,5.45
same,Log2fc HIST1H2AG,hiPSC-CMs,5.29
same,Log2fc HIST1H2AI,hiPSC-CMs,5.70
same,Log2fc HIST1H2BF,hiPSC-CMs,6.22
same,Log2fc HIST1H2BG,hiPSC-CMs,4.94
same,Log2fc HIST1H3A,hiPSC-CMs,5.14
same,Log2fc HIST1H3H,hiPSC-CMs,5.59
same,Log2fc HIST1H3J,hiPSC-CMs,5.16
same,Log2fc HIST1H4B,hiPSC-CMs,5.29
same,Log2fc HPR,hiPSC-CMs,−3.01
same,Log2fc HRK,hiPSC-CMs,−3.01
same,Log2fc IGFL3,hiPSC-CMs,5.18
same,Log2fc INSM1,hiPSC-CMs,4.97
same,Log2fc KCNK3,hiPSC-CMs,−3.07
same,Log2fc KCNK10,hiPSC-CMs,6.80
same,Log2fc KIF18B,hiPSC-CMs,−2.86
same,Log2fc LINC01164,hiPSC-CMs,4.96
same,Log2fc LINC01224,hiPSC-CMs,−3.31
same,Log2fc LINC01489,hiPSC-CMs,−3.45
same,Log2fc LRRC10,hiPSC-CMs,−3.05
same,Log2fc LRRC14B,hiPSC-CMs,−4.13
same,Log2fc MIR145,hiPSC-CMs,−3.74
same,Log2fc NEIL3,hiPSC-CMs,−2.89
same,Log2fc NFE2,hiPSC-CMs,−3.03
same,Log2fc NHLH2,hiPSC-CMs,7.10
same,Log2fc NKX1.2,hiPSC-CMs,5.72
same,Log2fc NMUR1,hiPSC-CMs,−2.85
same,Log2fc NOTO,hiPSC-CMs,5.13
same,Log2fc NPBWR1,hiPSC-CMs,5.06
same,Log2fc NUF2,hiPSC-CMs,−2.87
same,Log2fc PAX5,hiPSC-CMs,6.11
same,Log2fc PEG13,hiPSC-CMs,−3.16
same,Log2fc POU3F1,hiPSC-CMs,7.21
same,Log2fc PRSS42,hiPSC-CMs,−2.89
same,Log2fc PRSS44,hiPSC-CMs,−3.02
same,Log2fc RP1.34B20.4,hiPSC-CMs,5.94
same,Log2fc RP1.46F2.3,hiPSC-CMs,−3.03
same,Log2fc RP3.326I13.1,hiPSC-CMs,5.19
same,Log2fc RP3.412A9.12,hiPSC-CMs,−2.87
same,Log2fc RP4.794I6.4,hiPSC-CMs,5.33
same,Log2fc RP5.1139B12.4,hiPSC-CMs,−3.80
same,Log2fc RP5.1148A21.3,hiPSC-CMs,5.37
same,Log2fc RP5.884C9.2,hiPSC-CMs,5.53
same,Log2fc RP11.108M9.3,hiPSC-CMs,−4.12
same,Log2fc RP11.1149O23.2,hiPSC-CMs,5.86
same,Log2fc RP11.19O2.1,hiPSC-CMs,−3.69
same,Log2fc RP11.234B24.2,hiPSC-CMs,−2.89
same,Log2fc RP11.529G21.2,hiPSC-CMs,5.03
same,Log2fc RP11.712B9.2,hiPSC-CMs,5.10
same,Log2fc RPL7P3,hiPSC-CMs,−3.03
same,Log2fc SEC14L5,hiPSC-CMs,−3.33
same,Log2fc SLC4A11,hiPSC-CMs,5.81
same,Log2fc SLC5A1,hiPSC-CMs,−2.94
same,Log2fc TFAP2C,hiPSC-CMs,4.93
same,Log2fc TGFB111,hiPSC-CMs,−2.77
same,Log2fc TMEM72,hiPSC-CMs,−2.93
same,Log2fc TMEM88,hiPSC-CMs,−2.81
same,Log2fc TMEM158,hiPSC-CMs,5.19
same,Log2fc TMEM229B,hiPSC-CMs,4.99
same,Log2fc TNFRSF10A,hiPSC-CMs,5.25
same,Log2fc UTS2R,hiPSC-CMs,−3.09
same,Log2fc XIRP2,hiPSC-CMs,−2.88
same,Log2fc ZNF385C.1,hiPSC-CMs,−3.34
same,"genes associated with apoptosis, DNA damage, oxidative stress, and doxorubicin resistance",hiPSC-CMs; RNA-seq,significant upregulation
same,genes associated with cardiac function,hiPSC-CMs; RNA-seq,downregulation
same,"LD50, cell viability",RARG-KO hiPSC-CMs,1.582 µM
same,RARG-WT: LD50,RARG-WT hiPSC-CMs,0.469 µM
